Results published in patent US5705693A, “Cationic lipids” (Gilead Sciences, Inc., priority 1995, dated 1998).

What was measured:
[1] = Transfection of Caov-3 cells with ODN1 using 34 (Example 12); format: cell-based, human; details: human, caov-3 cells; Caov-3, 10.0 μg lipid; read-out: toxicity
Procedure: (§1) Preparation of lipid-nucleic acid complexes and cell transfection.
(§2) SK-BR-3, Caco-2, Caov-3 and MCF7 cells were transfected with ODN1 using 34 which was prepared as described in Example 5 using a 1:1 molar ratio of DOPE colipid. The sonicated lipid-colipid mixture (1 mL of a 2.5, 5 or 10 μg/mL suspension) was mixed with 250 pmole ODN1 and allowed to stand […] at room temperature […] before adding 1 mL of the lipid-ODN1 complex to the cells. The lipid-ODN1 complex was removed from the cells after 6 hours by washing the cells twice in PBS, followed by observing the cells in serum-containing medium immediately after removing the lipid-ODN1 complex.

[2] = tested on: Caov-3 cells; assay: as above; format: cell-based, human; details: 6 h, 1:1 DOPE
Procedure: as §1, §2

[3] = Transfection of Caco-2 cells with ODN1 using 34 (Example 12); format: cell-based, human; details: human, caco-2 cells; Caco-2, 5.0 μg lipid; read-out: toxicity
Procedure: as §1, §2

[4] = tested on: Caco-2 cells; assay: as above; format: cell-based, human; details: 6 h, 1:1 DOPE
Procedure: as §1, §2

[5] = tested on: cells; assay: Transfection with filtered preparations; format: cell-based; details: 1:1 DOPE, sonicated
Procedure: The invention cationic lipids 30 or 34 and DOPE colipid (1:1) were prepared by sonication and then filtered using 200, 100 or 50 nm filters to obtain particles less than about 200 nm in diameter, less than about 100 nm and less than about 50 nm. […] The 50 nm filtered preparations were about 40-50% as efficient as the preparations containing larger particles. The size of the particles or miscelles in a given preparation will vary depending on the preparation method. Sonicating cationic lipid-colipid mixtures will provide smaller miscelles and vortexing will provide larger miscelles (Felgner J. Biol. Chem. (1994) 269:2550-2561). Such miscelles are believed to transfer the polyanion into the cytoplasm of a eukaryotic or prokaryotic cell by pinocytosis, endocytosis and/or by direct fusion with the plasma membrane.

[6] = tested on: SK-BR-3 cells; assay: Transfection of SK-BR-3 cells with ODN1 using 34 (Example 12); format: cell-based, human; details: 6 h, 1:1 DOPE
Procedure: as §1, §2

[7] = tested on: cells; assay: Amount of fluorescently labeled oligonucleotide delivered versus commercially available lipids; format: cell-based; details: observed fluorescence intensity, estimated
Text: The difference in transfection efficiency between lipids described herein and commercially available lipids is usually most pronounced when the transfections are done in the presence of medium containing serum. The amount of polyanion delivered into cells was estimated to be about 2- to 100-fold greater for lipids 30, 34 and 35 based on the observed fluorescence intensity of transfected cells after transfection using a fluorescently labeled oligonucleotide. The cationic lipids described herein also transfect some cell types that are not detectably transfected by commercial lipids, particularly where the transfection is conducted in the presence of serum.

[8] = tested on: MCF7 cells; assay: Transfection of MCF7 cells with ODN1 using 34 (Example 12); format: cell-based, human; details: 6 h, 1:1 DOPE
Procedure: as §1, §2

[9] = tested on: T antigen; assay: Antisense inhibition of T antigen expression in CV-1 cells with ODN2A (Example 19); format: cell-based, African green monkey
Procedure: ODN2A, which was ODN2 lacking the fluorescent label at the 3' terminus, was used as an antisense oligonucleotide to inhibit T antigen expression in CV-1 cells using the protocol previously described (Wagner Science (1993) 260:1510-1513). CV-1 cells were transfected for 18 hours using 5 μg of 34 (1:1 molar ratio with DOPE colipid) and then cell nuclei were microinjected with T antigen plasmid using a needle concentration of 0.003 μg/mL of T antigen plasmid (ibid at page 1513, first column, note 5) and 0.025 μg/mL of β-galactosidase plasmid. The cells were scored for T antigen expression 4.5 hours after removing the transfection preparation from the cells. The cells were immunostained for β-galactosidase expression as an internal control for microinjected cells and the proportion of cells expressing both T antigen and β-galactosidase was determined.

[10] = tested on: CV-1 cells; assay: Transfection of CV-1 cells with CAT RNA (Example 16); format: cell-based, African green monkey; details: 2.5 μg RNA, 5 μg lipid, 24 h, DMEM 10% FBS or Optimem
Procedure: CV-1 cells were transfected for 24 hours with RNA encoding chloramphenicol acetyltransferase (CAT). The transfections used 2.5 μg of RNA, 5 μg of 34 and DMEM with 10% FBS or Optimem™ with no serum. CAT activity was measured by immunofluorescence staining using fluorescent labeled anti-CATantibodies (5',3'Inc.). The cells were observed as previously described (Wagner, Science (1993) 260:1510).

[11] = Transfection of CV-1 cells with ODN1 and toxicity (Example 22); format: cell-based, African green monkey; details: monkey, cv-1 cells; 10.0 μg lipid
Procedure: (§3) Lipids 35, 52, 54 and 55 were each prepared using a 2:1 lipid:DOPE molar ratio as follows. Two molar equivalents of each lipid in CHCl3 and one equivalent of DOPE in CHCl3 was dried under reduced pressure by rotovap at room temperature. Deionized water was then added to give 1 mg/mL of total lipid. 10 mL of water containing 10 mg of lipid was vortexed for 5 minutes in a 100 mL round bottom flask. 2 mL aliquots were then used to prepare lipid suspensions for complexing with ODN1. Each preparation was obtained by 6 cycles of freezing on dry ice and thawing in a 37° C. water bath.

[12] = tested on: CV-1 cells; assay: as above; format: cell-based, African green monkey; details: for % cells transfected: 2:1 DOPE, 6 h, 10% FBS, 250 pmole ODN1
Procedure: as §3

[13] = tested on: CV-1 cells; assay: Transfection of CV-1 cells with five 35:DOPE preparations (Example 20); format: cell-based, African green monkey; details: 35:DOPE 2:1, 1 μg lipid, 6 h, 10% FBS; in words
Procedure: Lipid complexes consisting of 35:DOPE (2:1 molar ratio) were prepared as follows. Two molar equivalents of 35 in CHCl3 and one equivalent of DOPE in CHCl3 was dried under reduced pressure by rotovap at room temperature. Deionized water was then added to give 1 mg/mL of total lipid. 10 mL of water containing 10 mg of lipid was vortexed for 5 minutes in a 100 mL round bottom flask. 2 mL aliquots were then used to prepare lipid suspensions for complexing with ODN1. The first preparation was obtained by directly using the vortexed 2 mL aliquot to prepare complexes with ODN1. The second preparation was obtained by 6 cycles of freezing on dry ice and thawing in a 37° C. water bath (Baxter, Dura Bath). The third preparation was obtained by placing a culture tube containing the lipid into a Ultra Sonik 100 (NEY) sonicator and the preparation was sonicated for 30 minutes at room temperature using the probe tip at maximum power. The fourth preparation was obtained by 6 cycles of freezing on dry ice and thawing in a 37° C. water bath, followed by filtering the suspension through a Lipofast™ 100 nm filter according to the manufacturer's instructions to obtain complexes less than about 100 nm in diameter. The fifth preparation was obtained by sonication for 10 minutes in a sonication bath followed by 5 sonication pulses for 15 seconds each with a probe sonicator (Sonifier 250, Branson Ultrasonics). […]

[14] = tested on: cdc-2 kinase; assay: cdc-2 antisense oligonucleotide analog transfection, Western blot (Example 22); format: cell-based, African green monkey; details: 30 nM cdc-2 antisense oligonucleotide analog, 2.5 and 5.0 μg lipid
Text: The oligonucleotide contained 5-(1-propynyl)cytosine in place of cytosine and 5-(1-propynyl)uracil in place of uracil. A control oligonucleotide analog having a mismatched base sequence was also used to check for any non-specific effect on cdc-2 kinase levels in the transfected cells caused by the oligonucleotide analog. A control containing only lipid was also used as a control. […] Protein levels were examined by Western blot analysis.

Question: For `CCCCCCCCCCCCCCCCCCN(CCCCCCCCCCCCCCCCCC)C(=O)CNC(=O)[C@@H](N)CCCNC(=N)NC(=O)OC(C)(C)C` [Compound 34], which cytotoxicity at 6 h [1] is on record?
Answer: < 10%

Question: And the “% transfected” value ([2]; Caov-3, 2.5 μg lipid)?
Answer: 20%

Question: And the “% transfected” value ([2]; Caov-3, 5.0 μg lipid)?
Answer: 20%

Question: What about the “% transfected” value ([2]; Caov-3, 10.0 μg lipid) of the same compound?
Answer: 61%

Question: And the cytotoxicity at 6 h [3]?
Answer: < 10%

Question: And the “% transfected” value ([4]; Caco-2, 2.5 μg lipid)?
Answer: < 5%

Question: What about the “% transfected” value ([4]; Caco-2, 5.0 μg lipid) of the same compound?
Answer: 10-15%

Question: And the “% transfected” value ([4]; Caco-2, 10.0 μg lipid)?
Answer: 0%

Question: And the “transfection efficiency of 50 nm filtered preparations relative to larger particles” value ([5]; 50 nm filter)?
Answer: 40-50%

Question: What about the “transfection efficiency of 200 nm or 100 nm filtered preparations” value ([5]; in words) of the same compound?
Answer: the most efficient (and equally efficient)

Question: What about the “% transfected” value ([6]; SK-BR-3, 2.5 μg lipid) of the same compound?
Answer: 60-70%

Question: What about the “% transfected” value ([6]; SK-BR-3, 5.0 μg lipid) of the same compound?
Answer: > 90%

Question: And the “% transfected” value ([6]; SK-BR-3, 10.0 μg lipid)?
Answer: > 90%

Question: What about the “amount of polyanion delivered into cells relative to commercially available lipids” value [7] of the same compound?
Answer: 2- to 100 fold

Question: What about the “% transfected” value ([8]; MCF7, 2.5 μg lipid) of the same compound?
Answer: 30-50%

Question: And the “% transfected” value ([8]; MCF7, 5.0 μg lipid)?
Answer: 83%

Question: And the “% transfected” value ([8]; MCF7, 10.0 μg lipid)?
Answer: 80%

Question: And the “efficiency in delivering ODN2A into cells compared with Lipofectin” value ([9]; 5 μg, 1:1 DOPE, 18 h, ODN2A needed to inhibit T antigen expression to an equal extent)?
Answer: about 10 fold

Question: And the “delivery of antisense oligomer” value ([9]; in words)?
Answer: efficiently delivered the antisense oligomer into the cells without interfering with the capacity of the oligonucleotide to inhibit gene (protein) expression

Question: What about the “cells expressing CAT” value [10] of the same compound?
Answer: 1-2%

Question: For `CCCCCCCCCCCCCCN(CCCCCCCCCCCCCC)C(=O)CNC(=O)[C@@H](N)CCCNC(=N)NC(=O)OC(C)(C)C` [Compound 35], which cytotoxicity at 6 h [11] is on record?
Answer: > 40%

Question: What about the “% cells transfected” value ([12]; 1 μg lipid) of the same compound?
Answer: 40%

Question: What about the “% cells transfected” value ([12]; 2.5 μg lipid) of the same compound?
Answer: 85%

Question: What about the “% cells transfected” value ([12]; 5.0 μg lipid) of the same compound?
Answer: 100%

Question: And the “% cells transfected” value ([12]; 10.0 μg lipid)?
Answer: 60%

Question: What about the “uniformity of cell staining” value ([12]; footnote, in words) of the same compound?
Answer: relatively uniformly stained

Question: And the “amount of polyanion delivered into cells relative to commercially available lipids” value [7]?
Answer: 2- to 100 fold

Question: And the “transfection of CV-1 cells, all preparations” value [13]?
Answer: efficiently transfected CV-1 cells

Question: What about the cdc-2 protein levels [14] of the same compound?
Answer: efficiently reduced cdc-2 protein levels
